Test results from US10188615B2, “Alkoxy compounds for disease treatment” (Acucela Inc., priority 2007, dated 2019).
pIC50: −log10 of the molar value. One block for each molecule: values may come before it.

Key:
visual cycle isomerase = visual cycle isomerase (Bos taurus (Bovine), UniProt Q28175); assay: Bovine in vitro isomerase inhibition assay (RPE microsome membranes); settings: Bovine in vitro Inhibition data; inhibition of 11-cis retinol formation; bovine RPE microsomes, 20 μM all-trans retinol, 37° C., 30 minutes; given as ranges
Chain of visual cycle isomerase (Q28175 2-533): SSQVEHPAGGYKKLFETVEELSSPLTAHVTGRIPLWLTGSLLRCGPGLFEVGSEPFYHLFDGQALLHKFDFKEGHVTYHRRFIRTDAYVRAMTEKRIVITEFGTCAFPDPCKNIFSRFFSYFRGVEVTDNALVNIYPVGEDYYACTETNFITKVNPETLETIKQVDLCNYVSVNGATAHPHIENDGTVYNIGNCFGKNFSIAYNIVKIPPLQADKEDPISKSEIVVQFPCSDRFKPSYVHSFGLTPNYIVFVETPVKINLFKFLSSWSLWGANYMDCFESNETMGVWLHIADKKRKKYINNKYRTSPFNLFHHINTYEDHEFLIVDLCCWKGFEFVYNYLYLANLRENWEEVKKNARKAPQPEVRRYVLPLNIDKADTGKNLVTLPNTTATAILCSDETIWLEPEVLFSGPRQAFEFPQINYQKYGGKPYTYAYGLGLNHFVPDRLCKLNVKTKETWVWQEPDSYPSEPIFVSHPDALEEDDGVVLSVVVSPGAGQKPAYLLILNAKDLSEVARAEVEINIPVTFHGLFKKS
Experimental: The capability of compounds disclosed herein to inhibit the activity of a visual cycle isomerase was determined.
All tests were performed in duplicate.

isomerase = isomerase (Mus musculus (Mouse), UniProt Q91ZQ5); assay: In vivo murine isomerase assay (recovery of 11-cis-retinal after photobleaching); parameters: species or system mice; settings: for inhibition at 1 mg/kg: read-out: % Inhibition 1 mg/kg, 4 h
Chain of isomerase (Q91ZQ5 whole entry): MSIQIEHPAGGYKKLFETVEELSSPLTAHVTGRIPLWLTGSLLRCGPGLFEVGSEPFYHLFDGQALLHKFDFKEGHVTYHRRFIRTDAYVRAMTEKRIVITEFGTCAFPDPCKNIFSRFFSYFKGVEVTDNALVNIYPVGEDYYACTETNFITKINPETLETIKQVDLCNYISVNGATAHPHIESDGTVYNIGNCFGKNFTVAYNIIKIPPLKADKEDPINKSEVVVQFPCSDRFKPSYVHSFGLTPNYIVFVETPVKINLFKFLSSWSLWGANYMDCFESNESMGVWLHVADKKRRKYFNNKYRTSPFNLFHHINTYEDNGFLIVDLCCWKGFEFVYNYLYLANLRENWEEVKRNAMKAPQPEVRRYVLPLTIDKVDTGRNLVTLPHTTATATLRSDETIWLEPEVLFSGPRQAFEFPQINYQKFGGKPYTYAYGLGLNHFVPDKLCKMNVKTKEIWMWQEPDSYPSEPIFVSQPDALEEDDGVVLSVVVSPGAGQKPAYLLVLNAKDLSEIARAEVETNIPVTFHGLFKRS
Experimental: The capability of compounds described herein to inhibit isomerase was determined by an in vivo murine isomerase assay. Brief exposure of the eye to intense light (“photobleaching” of the visual pigment or simply “bleaching”) is known to photo-isomerize almost all 11-cis-retinal in the retina. The recovery of 11-cis-retinal after bleaching can be used to estimate the activity of isomerase in vivo. Delayed recovery, as represented by lower 11-cis-retinal oxime levels, indicates inhibition of isomerization reaction.
The mice were allowed to recover 2 hours in the dark. The animals were then sacrificed by carbon dioxide inhalation. Retinoids were extracted from the eye and the regeneration of 11-cis-retinal was assessed at various time intervals.
After the mice were sacrificed, the eyes were immediately removed and placed in liquid nitrogen for storage.
The eyes were placed in 500 μL of bis-tris propane buffer (10 mM, pH ˜7.3) and 20 µL of 0.8M hydroxile amine (pH-7.3). The eyes were cut up into small pieces with small iris scissors and then thoroughly homogenized at 30000 rpm with a mechanical homogenizer (Polytron PT 1300 D) in the tube until no visible tissue remained. 500 μL of methanol and 500 μL of heptane were added to each tube. The tubes were attached to a vortexer so that the contents were mixed thoroughly for 15 minutes in room temperature. The organic phase was separated from the aqueous phase by centrifugation for 10 min at 13K rpm, 4° C. 240 μL of the solution from the top layer (organic phase) was removed and transferred to clean 300 μl glass inserts in HPLC vials using glass pipette and the vials were crimped shut tightly.
Loading volume for each sample is 100 μl; detection wavelength is 360 nm. The area under the curve for 11-cis retinal oxime was calculated by Agilent Chemstation software and was recorded manually. Data processing was performed using Prizm software.
Positive control mice (no compound administered) were sacrificed fully dark-adapted and the eye retinoids analyzed. Light (bleached) control mice (no compound administered) were sacrificed and retinoids isolated and analyzed immediately after light treatment.
Mice were sacrificed 2 hours after bleaching, eyes were enucleated, and retinoid content was analyzed by HPLC.
Recovery control mice (vehicle-only treated) were light-treated and left to recover for 2 hours in the dark before sacrifice and analysis. Light control mice (vehicle only treated) were sacrificed for analysis immediately after photo-bleaching.

[1] = target: recombinant human RPE65 and LRAT (Homo sapiens (Human), UniProt Q16518); assay: Human in vitro isomerase inhibition assay; type: biochemical; settings: Human in vitro Inhibition data; inhibition of 11-cis-retinol formation; HEK293 homogenate, all-trans-retinol about 20 μM, 37° C., one hour; given as ranges
Chain of recombinant human RPE65 and LRAT (Q16518 2-533): as the sequence (Q28175 2-533) above, with S2I, I135V, V154I, I299L, H320N, E321G, G426C counted along it
Experimental: The concentration dependent effect of the compounds disclosed herein on the retinol isomerization reaction was also evaluated with a recombinant human enzyme system. […] A homogenate of HEK293 cell clone expressing recombinant human RPE65 and LRAT were the source of the visual enzymes, and exogenous all-trans-retinol (about 20 μM) was used as the substrate. Recombinant human CRALBP (about 80 ug/mL) was added to enhance the formation of 11 cis-retinal. The 200 μL Bis-Tris Phosphate buffer (10 mM, pH 7.2) based reaction mixture also contains 0.5% BSA, and 1 mM NaPPi. In this assay, the reaction was carried out at 37° C. in duplicates for one hour and was terminated by addition of 300 μL methanol. The amount of reaction product, 11-cis-retinol, was measured by HPLC analysis following Heptane extraction of the reaction mixture. […] The ability of the numerous compounds disclosed herein to inhibit isomerization reaction is quantified and the respective IC50 value is determined.

SMILES: CCCC(O)(CCC)COc1cccc(C(O)CCN)c1 (centres unmarked) [Example 20, 4-((3-(3-Amino-1-hydroxypropyl)phenoxy)methyl)heptan-4-ol]
pIC50 (visual cycle isomerase): ≥ 6.00 | inhibition at 1 mg/kg (isomerase): 98%

SMILES: NCCCc1cccc(OCC2CCCCC2)c1 [Example 1, 3-(3-(Cyclohexylmethoxy)phenyl)propan-1-amine]
pIC50 (visual cycle isomerase): ≥ 6.00 | inhibition at 1 mg/kg (isomerase): 68%

SMILES: NCCC(=O)c1cccc(OCC2CCCCC2)c1 [Example 5, 3-Amino-1-(3-(cyclohexylmethoxy)phenyl)propan-1-one]
pIC50 (visual cycle isomerase): ≥ 6.00 | ED50 (isomerase; in vivo inhibition of isomerase, Table 10): 1 mg/kg

SMILES: CCCC(CCC)COc1cccc(C(O)CCN)c1 (centres unmarked) [Example 17, 3-Amino-1-(3-(2-propylpentyloxy)phenyl)propan-1-ol]
pIC50 (visual cycle isomerase): ≥ 6.00 | inhibition at 1 mg/kg (isomerase): 96% | pIC50 [1]: ≥ 8.00

Now from value to molecule:

pIC50 (visual cycle isomerase): ≥ 6.00 | inhibition at 1 mg/kg (isomerase): 41% | pIC50 [1]: ≥ 8.00
SMILES: NCCC(O)c1cccc(OCC2(O)CCCCCC2)c1 (centres unmarked) [Example 13, 1-((3-(3-Amino-1-Hydroxypropyl)Phenoxy)Methyl)Cycloheptanol]

pIC50 (visual cycle isomerase): ≥ 6.00 | inhibition at 1 mg/kg (isomerase): 91% | pIC50 [1]: ≥ 8.00
SMILES: NCCC(O)c1cccc(OCC2CCCCCC2)c1 (centres unmarked) [Example 15, 3-Amino-1-(3-(cycloheptylmethoxy)phenyl)propan-1-ol]

pIC50 (visual cycle isomerase): ≥ 6.00 | inhibition at 1 mg/kg (isomerase): 59%
SMILES: NCCC(O)c1cccc(OCC2(O)CCCCC2)c1 (centres unmarked) [Example 12, 1-((3-(3-Amino-1-Hydroxypropyl)Phenoxy)Methyl)Cyclohexanol]
